Read-outs that look alike come from different tables or passages of the source. Ends that are not written are not given here.
Tests used:
Type in all cases: binding
[1] = target: T1, recombinant HLA-DR402 (HLA-DRA1*01:01, HLA-DRB1*04:02) (Homo sapiens, UniProt P01903+P01911, A100E/A169T/F76Y/K127E/L162R/M171V/N62H/P40V/Q125Y/Q99D/R42H/S133A/S149N/S66Y/V209L/W38E); assay: biochemical
T1 construct: poly-histidine (C); made in house; host or cells: High Five (Hi5) insect cells, baculovirus (pAcGP67a)

[2] = target: T2, recombinant HLA-DR401 (HLA-DRA1*01:01, HLA-DRB1*04:01) (Homo sapiens, UniProt P01903+P01911, A100K/A169T/F76Y/I96L/K127E/L162R/M171V/N62H/P40V/Q125Y/R42H/S133A/S149N/S66Y/V115G/V209L/W38E); assay: biochemical
T2 construct: poly-histidine (C); made in house; host or cells: High Five (Hi5) insect cells, baculovirus (pAcGP67a)

[3] = target: yeast-displayed HLA-DR401 (Homo sapiens, UniProt P01903+P01911, A100K/A169T/D72E/F76Y/I96L/K127E/L162R/M171V/M61L/P40V/Q125Y/R42H/S133A/S149N/S66Y/V115G/V157M/V209L/W38E); assay: Yeast-display randomized peptide library selection and deep sequencing, HLA-DR401; design: key: 1=binder; 0=non-binder
[4] = HLA-DR402, estimated from two-point fluorescence polarization competition, Fig5F, read-out: Estimated IC50
[5] = SuppFig8C, yeast-display library peptides

With AAQVDWPTLPMWEEG as the molecule, how does the IC50 [1] read?
Its IC50 is 63.6 nM.

Which IC50 [1] does the source give for AAVTEEKSHLGWEEG here?
The IC50 was 58.3 nM.

For `CC[C@H](C)[C@H](NC(=O)[C@@H]1CCCN1C(=O)[C@H](Cc1ccc(O)cc1)NC(=O)[C@H](CCCCN)NC(=O)[C@H](CCSC)NC(=O)[C@H](C)NC(=O)[C@H](CCSC)NC(=O)[C@H](CCSC)NC(=O)[C@H](Cc1c[nH]c2ccccc12)NC(=O)[C@H](CCCCN)NC(=O)[C@H](CCSC)NC(=O)[C@H](CCCNC(=N)N)NC(=O)[C@H](CC(C)C)NC(=O)[C@H](C)NC(=O)[C@@H]1CCCN1)C(=O)O`, which IC50 [1, 4] is on record?
The IC50 was 1310 nM.

With `CC[C@H](C)[C@H](NC(=O)[C@H](C)NC(=O)[C@@H](NC(=O)[C@H](C)NC(=O)[C@H](CCCNC(=N)N)NC(=O)[C@H](CCCNC(=N)N)NC(=O)CNC(=O)[C@@H](NC(=O)[C@H](CCSC)NC(=O)[C@@H](NC(=O)[C@H](Cc1ccccc1)NC(=O)[C@H](CCC(=O)O)NC(=O)[C@H](CCC(=O)O)NC(=O)[C@@H](N)Cc1ccc(O)cc1)[C@@H](C)O)C(C)C)[C@@H](C)O)C(=O)N[C@@H](CC(C)C)C(=O)O` as the molecule, how does the IC50 [1, 4] read?
The IC50 was 4570 nM.

For AAPRRHANHLGWEEG, which IC50 [1] is on record?
Its IC50 is 130 nM.

What does the source list for AAANRRPSLLGWEEG?
IC50 [1, 4]: < 10 nM; IC50 ([1]; read-out: IC50): < 10 nM

Which results are given for AATERRPTLMAWEEG?
IC50 [1, 4]: < 10 nM; IC50 ([1]; read-out: IC50): < 10 nM

With AAACRKRTWLGWEEG as the molecule, how does the IC50 [1, 4] read?
The IC50 was less than 10 nM.

What about the IC50 ([1]; read-out: IC50) of the same molecule?
The IC50 was less than 10 nM.

Which IC50 [1, 4] does the source give for AALDAHRDHMAWEEG here?
The IC50 was less than 10 nM.

And the IC50 ([1]; read-out: IC50)?
The IC50 was less than 10 nM.

Which results are given for ASKMRMATPLLMQAG?
IC50 [1, 4]: < 10 nM; IC50 [2]: 5170 nM

How did the IC50 [1, 4] turn out when NRMVLASTTAKAMEQ was run?
Its IC50 is less than 10 nM.

And the IC50 ([1]; read-out: IC50)?
Its IC50 is less than 10 nM.

How did the “label (1=binder, 0=non-binder)” value ([3]; Fig6B data set) turn out when AAAKYRLHVKSGWSGGSGGG was run?
The value was 0.

How did the IC50 [1, 4] turn out when AAVSDRLPLRGWEEG was run?
Its IC50 is less than 10 nM.

And the IC50 ([1]; read-out: IC50)?
Its IC50 is less than 10 nM.

For LGFVFTLTVPSERGL, which IC50 [1, 4] is on record?
Its IC50 is 409 nM.

With AAGRSHRTHEGWEEG as the molecule, how does the IC50 [1] read?
Its IC50 is 10 nM.

Which IC50 [1] does the source give for AAEHVWPSLVGWEEG here?
The IC50 was 25.6 nM.

How did the IC50 [1, 4] turn out when `CC[C@H](C)[C@H](NC(=O)CNC(=O)[C@H](CCCNC(=N)N)NC(=O)[C@H](CCCCN)NC(=O)[C@@H](NC(=O)[C@H](CCSC)NC(=O)[C@H](CCCNC(=N)N)NC(=O)[C@@H](NC(=O)[C@H](CC(C)C)NC(=O)[C@H](CCC(=O)O)NC(=O)[C@H](CCSC)NC(=O)[C@@H](NC(=O)[C@H](CCSC)NC(=O)[C@@H](N)[C@@H](C)O)C(C)C)C(C)C)[C@@H](C)CC)C(=O)N[C@@H](CC(N)=O)C(=O)O` [TMVMELVRMIKRGIN] was run?
The IC50 was 870 nM.

With AAAMQRRNPALLLFGGSGGG as the molecule, how does the “label (1=binder, 0=non-binder)” value ([3]; Fig6B data set) read?
Its value is 0.

And the “label (1=binder, 0=non-binder)” value [3, 5]?
Its value is 0.

What does the source list for AAADARCSNRSDLMGGSGGG?
label (1=binder, 0=non-binder) ([3]; Fig6B data set): 0; label (1=binder, 0=non-binder) [3, 5]: 0

How did the “label (1=binder, 0=non-binder)” value [3, 5] turn out when AAARGALTTQLLAIGGSGGG was run?
Its value is 0.

Which IC50 [1, 4] does the source give for `CC[C@H](C)[C@H](NC(=O)[C@H](CCC(=O)O)NC(=O)[C@@H](N)[C@@H](C)O)C(=O)N[C@H](C(=O)N[C@@H](CCCNC(=N)N)C(=O)N[C@@H](CCSC)C(=O)N[C@@H](CCSC)C(=O)N[C@@H](CCC(=O)O)C(=O)N[C@@H](CO)C(=O)N[C@@H](C)C(=O)N[C@@H](CCCNC(=N)N)C(=O)N1CCC[C@H]1C(=O)N[C@@H](CCC(=O)O)C(=O)N[C@@H](CC(=O)O)C(=O)N[C@H](C(=O)O)C(C)C)[C@@H](C)CC` here?
The IC50 was 83.1 nM.

For AALTGKLGHRGWEEG, which IC50 [1, 4] is on record?
Its IC50 is less than 10 nM.

And the IC50 ([1]; read-out: IC50)?
Its IC50 is less than 10 nM.

Which IC50 [1] does the source give for AAVTERPINLGWEEG here?
The IC50 was 51.3 nM.

For AAVREKCDHVGWEEG, which IC50 [1] is on record?
The IC50 was 75.5 nM.

What does the source list for AAANWSSSPDMPLVGGSGGG?
label (1=binder, 0=non-binder) ([3]; Fig6B data set): 0; label (1=binder, 0=non-binder) [3, 5]: 0

Which results are given for AAALSTSWLFCSRCGGSGGG?
label (1=binder, 0=non-binder) ([3]; Fig6B data set): 0; label (1=binder, 0=non-binder) [3, 5]: 0

AALWRHPGHVGWEEG was tested. Which IC50 [1] did it give?
The IC50 was 74.9 nM.

How did the IC50 [1] turn out when AACRKHGSSIGWEEG was run?
Its IC50 is 132 nM.

With ASKIAFKIVSQEPAG as the molecule, how does the IC50 [1] read?
The IC50 was 27.8 nM.

AQKIVEWDSRKSKYG was tested. Which IC50 [1] did it give?
The IC50 was 62 nM.

Which IC50 [1] does the source give for AAVTNWGCEVGWEEG here?
Its IC50 is 136 nM.
